± gives the expanded uncertainty stated by the source.
Details: Liquid, Transpiration method

COc1cccs1 [2-methoxythiophene]
Details	vapor or sublimation pressure [kPa]
278.1 K	0.1302 ± 0.0068
281 K	0.1585 ± 0.0082
283 K	0.1804 ± 0.0095
285.9 K	0.2284 ± 0.012
287.8 K	0.2708 ± 0.014
290.7 K	0.3244 ± 0.017
292.7 K	0.3939 ± 0.02
295.7 K	0.4587 ± 0.024
297.6 K	0.5406 ± 0.028
300.6 K	0.6383 ± 0.033
302.6 K	0.6976 ± 0.036
305.6 K	0.8682 ± 0.045
307.6 K	0.9894 ± 0.051
310.6 K	1.147 ± 0.059
312.6 K	1.336 ± 0.069
312.7 K	1.299 ± 0.067
313.6 K	1.366 ± 0.071
315.6 K	1.559 ± 0.08
318.6 K	1.83 ± 0.094
321.7 K	2.196 ± 0.11
323.7 K	2.471 ± 0.13

COc1ccsc1 [3-methoxythiophene]
Details	vapor or sublimation pressure [kPa]
278.1 K	0.089 ± 0.0047
281 K	0.1105 ± 0.0058
283.9 K	0.1366 ± 0.0071
286.8 K	0.1662 ± 0.0087
289.7 K	0.2094 ± 0.011
292.6 K	0.2646 ± 0.014
295.7 K	0.32 ± 0.016
297.6 K	0.3561 ± 0.018
300.6 K	0.4274 ± 0.022
303.6 K	0.5203 ± 0.027
306.6 K	0.6282 ± 0.033
309.6 K	0.7649 ± 0.039
312.6 K	0.9169 ± 0.047
315.7 K	1.078 ± 0.055
318.7 K	1.313 ± 0.067
321.7 K	1.536 ± 0.078
324.7 K	1.765 ± 0.089
